Tests used:
M14 = assay: Cytotoxicity against human M14 cells after 48 hrs by sulforhodamine B assay; format: cell-based; details: m14, 48 h
SK-MEL-2 = assay: Cytotoxicity against human SK-MEL-2 cells after 48 hrs by sulforhodamine B assay; format: cell-based; details: sk-mel-2, 48 h
SK-MEL-28 = assay: Cytotoxicity against human SK-MEL-28 cells after 48 hrs by sulforhodamine B assay; format: cell-based; details: sk-mel-28, 48 h
SK-MEL-5 = assay: Cytotoxicity against human SK-MEL-5 cells after 48 hrs by sulforhodamine B assay; format: cell-based; details: sk-mel-5, 48 h
OVCAR-3 = assay: Cytotoxicity against human OVCAR3 cells after 48 hrs by sulforhodamine B assay; format: cell-based; details: ovcar-3, 48 h
OVCAR-5 = assay: Cytotoxicity against human OVCAR5 cells after 48 hrs by sulforhodamine B assay; format: cell-based; details: ovcar-5, 48 h
786-0 = assay: Cytotoxicity against human 786-0 cells after 48 hrs by sulforhodamine B assay; format: cell-based; details: 786-0, 48 h
ACHN = assay: Cytotoxicity against human ACHN cells after 48 hrs by sulforhodamine B assay; format: cell-based
TK-10 = assay: Cytotoxicity against human TK10 cells after 48 hrs by sulforhodamine B assay; format: cell-based; details: tk-10, 48 h
K562 [1] = assay: Growth inhibition of human K562 cells after 48 hrs by sulforhodamine B assay; format: functional; details: K562, 48 h
A549 = assay: Growth inhibition of human A549 cells after 48 hrs by sulforhodamine B assay; format: functional; details: A549, 48 h
NCI-H460 = assay: Growth inhibition of human NCI-H460 cells after 48 hrs by sulforhodamine B assay; format: functional; details: NCI-H460, 48 h
DU-145 = assay: Cytotoxicity against human DU145 cells after 48 hrs by sulforhodamine B assay; format: cell-based; details: du-145, 48 h
[2] = test system: Tyrosine-protein kinase ABL1 (Homo sapiens), P00519 [F317I]; assay: Binding affinity to human phosphorylated ABL1 F317I mutant at 10 uM incubated for 1 hr by kinase binding assay relative to untreated control
Sequence of Tyrosine-protein kinase ABL1 (Homo sapiens), P00519 [F317I] (P00519 whole entry F317I): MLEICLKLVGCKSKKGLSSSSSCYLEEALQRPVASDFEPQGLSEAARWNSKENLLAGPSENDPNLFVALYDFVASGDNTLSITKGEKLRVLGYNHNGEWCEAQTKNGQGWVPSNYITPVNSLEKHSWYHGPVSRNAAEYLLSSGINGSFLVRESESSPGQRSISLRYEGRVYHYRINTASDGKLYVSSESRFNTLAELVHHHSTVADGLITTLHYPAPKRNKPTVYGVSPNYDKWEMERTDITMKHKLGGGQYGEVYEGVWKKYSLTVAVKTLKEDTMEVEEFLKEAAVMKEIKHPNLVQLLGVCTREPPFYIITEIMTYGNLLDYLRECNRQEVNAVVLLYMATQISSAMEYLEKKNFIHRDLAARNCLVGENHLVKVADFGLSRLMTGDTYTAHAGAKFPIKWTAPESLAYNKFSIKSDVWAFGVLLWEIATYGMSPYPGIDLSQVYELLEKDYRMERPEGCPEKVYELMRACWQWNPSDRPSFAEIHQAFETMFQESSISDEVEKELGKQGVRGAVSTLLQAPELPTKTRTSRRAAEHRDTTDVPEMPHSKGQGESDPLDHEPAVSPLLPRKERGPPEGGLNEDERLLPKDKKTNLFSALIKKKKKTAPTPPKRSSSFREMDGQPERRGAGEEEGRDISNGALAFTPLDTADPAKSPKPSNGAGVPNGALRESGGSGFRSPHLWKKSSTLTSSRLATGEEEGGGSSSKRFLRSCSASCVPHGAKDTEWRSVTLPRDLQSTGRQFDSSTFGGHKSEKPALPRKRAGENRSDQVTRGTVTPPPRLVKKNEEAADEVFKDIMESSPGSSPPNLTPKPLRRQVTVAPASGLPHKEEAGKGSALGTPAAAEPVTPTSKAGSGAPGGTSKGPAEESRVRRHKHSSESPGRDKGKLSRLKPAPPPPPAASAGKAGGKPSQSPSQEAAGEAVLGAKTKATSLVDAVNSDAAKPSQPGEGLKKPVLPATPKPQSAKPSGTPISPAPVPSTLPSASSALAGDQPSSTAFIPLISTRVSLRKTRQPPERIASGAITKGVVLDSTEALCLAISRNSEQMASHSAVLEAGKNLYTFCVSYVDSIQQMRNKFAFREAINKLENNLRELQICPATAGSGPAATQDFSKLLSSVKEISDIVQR

[3] = test system: Tyrosine-protein kinase ABL1 (Homo sapiens), P00519 [F317L]; assay: Binding affinity to human phosphorylated ABL1 F317L mutant at 10 uM incubated for 1 hr by kinase binding assay relative to untreated control
Sequence of Tyrosine-protein kinase ABL1 (Homo sapiens), P00519 [F317L] (P00519 whole entry F317L): as the sequence (P00519 whole entry F317I) above, with I317L counted along it

[4] = test system: Serine/threonine-protein kinase B-raf (Homo sapiens), P15056 [V600E]; assay: Binding affinity to human BRAF V600E mutant at 10 uM incubated for 1 hr by kinase binding assay relative to untreated control
Sequence of Serine/threonine-protein kinase B-raf (Homo sapiens), P15056 [V600E] (P15056 whole entry V600E): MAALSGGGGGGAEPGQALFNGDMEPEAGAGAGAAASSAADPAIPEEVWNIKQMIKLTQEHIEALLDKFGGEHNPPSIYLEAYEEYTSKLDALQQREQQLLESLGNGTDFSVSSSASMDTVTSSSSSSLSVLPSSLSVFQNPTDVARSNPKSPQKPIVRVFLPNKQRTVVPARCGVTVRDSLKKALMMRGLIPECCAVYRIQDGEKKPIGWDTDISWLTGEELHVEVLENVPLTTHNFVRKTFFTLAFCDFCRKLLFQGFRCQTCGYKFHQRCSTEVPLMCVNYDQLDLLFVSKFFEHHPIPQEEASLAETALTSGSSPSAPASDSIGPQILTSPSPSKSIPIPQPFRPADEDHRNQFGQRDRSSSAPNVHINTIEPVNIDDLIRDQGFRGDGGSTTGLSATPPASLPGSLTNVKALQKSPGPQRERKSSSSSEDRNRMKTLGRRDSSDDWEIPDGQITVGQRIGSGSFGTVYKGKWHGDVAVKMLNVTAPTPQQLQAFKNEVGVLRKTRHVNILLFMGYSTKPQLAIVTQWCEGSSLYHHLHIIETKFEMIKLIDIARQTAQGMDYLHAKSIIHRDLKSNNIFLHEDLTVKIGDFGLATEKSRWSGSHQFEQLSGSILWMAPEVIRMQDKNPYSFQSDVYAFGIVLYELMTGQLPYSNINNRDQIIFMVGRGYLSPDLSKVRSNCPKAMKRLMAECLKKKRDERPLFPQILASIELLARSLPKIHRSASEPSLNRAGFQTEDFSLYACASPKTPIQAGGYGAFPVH

[5] = molecular target: Cyclin-dependent kinase 8 (Homo sapiens) (UniProt P49336); assay: Binding affinity to human CDK8 at 10 uM incubated for 1 hr by kinase binding assay relative to untreated control
Sequence of Cyclin-dependent kinase 8 (Homo sapiens) (P49336 whole entry): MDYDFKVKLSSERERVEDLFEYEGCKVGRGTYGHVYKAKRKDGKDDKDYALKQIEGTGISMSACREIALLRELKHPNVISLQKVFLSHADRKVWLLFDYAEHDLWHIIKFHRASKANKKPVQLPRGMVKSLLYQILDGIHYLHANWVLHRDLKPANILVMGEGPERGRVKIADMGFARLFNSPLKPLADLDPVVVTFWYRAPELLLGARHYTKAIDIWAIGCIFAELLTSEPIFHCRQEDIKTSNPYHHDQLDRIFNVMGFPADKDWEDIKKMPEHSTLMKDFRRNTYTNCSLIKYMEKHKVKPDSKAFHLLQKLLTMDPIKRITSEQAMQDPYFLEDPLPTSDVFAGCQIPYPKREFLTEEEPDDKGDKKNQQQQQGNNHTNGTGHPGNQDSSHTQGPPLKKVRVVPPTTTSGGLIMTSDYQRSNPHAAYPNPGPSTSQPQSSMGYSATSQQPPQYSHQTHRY

[6] = molecular target: Macrophage colony-stimulating factor 1 receptor (Homo sapiens) (UniProt P07333); assay: Binding affinity to human CSF1R at 10 uM incubated for 1 hr by kinase binding assay relative to untreated control
Sequence of Macrophage colony-stimulating factor 1 receptor (Homo sapiens) (P07333 whole entry, canonical isoform): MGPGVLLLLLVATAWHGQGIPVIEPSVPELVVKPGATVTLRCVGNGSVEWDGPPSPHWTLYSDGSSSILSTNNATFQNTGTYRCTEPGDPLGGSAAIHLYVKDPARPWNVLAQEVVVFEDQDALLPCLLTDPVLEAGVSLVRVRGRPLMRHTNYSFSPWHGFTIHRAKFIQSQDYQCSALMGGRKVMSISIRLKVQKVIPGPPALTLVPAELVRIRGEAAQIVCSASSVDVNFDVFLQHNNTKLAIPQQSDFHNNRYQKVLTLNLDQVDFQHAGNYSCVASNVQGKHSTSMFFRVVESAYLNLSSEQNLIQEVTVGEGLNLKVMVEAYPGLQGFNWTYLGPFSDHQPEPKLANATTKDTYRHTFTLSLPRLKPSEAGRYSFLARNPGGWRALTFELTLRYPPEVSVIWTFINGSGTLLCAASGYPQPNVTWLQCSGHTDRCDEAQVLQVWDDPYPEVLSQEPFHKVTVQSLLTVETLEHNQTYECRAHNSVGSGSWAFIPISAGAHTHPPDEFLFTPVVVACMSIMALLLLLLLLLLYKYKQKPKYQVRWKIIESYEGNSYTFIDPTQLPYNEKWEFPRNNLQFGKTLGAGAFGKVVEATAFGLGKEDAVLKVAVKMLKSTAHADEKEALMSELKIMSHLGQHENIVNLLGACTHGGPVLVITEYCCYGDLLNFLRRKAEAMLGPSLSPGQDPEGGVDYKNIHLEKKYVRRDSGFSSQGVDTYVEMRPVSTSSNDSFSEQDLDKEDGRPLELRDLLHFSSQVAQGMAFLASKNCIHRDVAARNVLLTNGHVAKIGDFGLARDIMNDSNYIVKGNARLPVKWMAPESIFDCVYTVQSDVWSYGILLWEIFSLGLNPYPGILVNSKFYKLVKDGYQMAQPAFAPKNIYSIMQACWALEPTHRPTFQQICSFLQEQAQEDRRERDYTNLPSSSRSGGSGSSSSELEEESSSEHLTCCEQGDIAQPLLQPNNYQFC

[7] = molecular target: Casein kinase I isoform delta (Homo sapiens) (UniProt P48730); assay: Binding affinity to human CSNK1D at 10 uM incubated for 1 hr by kinase binding assay relative to untreated control
Sequence of Casein kinase I isoform delta (Homo sapiens) (P48730 whole entry, looked up, canonical isoform): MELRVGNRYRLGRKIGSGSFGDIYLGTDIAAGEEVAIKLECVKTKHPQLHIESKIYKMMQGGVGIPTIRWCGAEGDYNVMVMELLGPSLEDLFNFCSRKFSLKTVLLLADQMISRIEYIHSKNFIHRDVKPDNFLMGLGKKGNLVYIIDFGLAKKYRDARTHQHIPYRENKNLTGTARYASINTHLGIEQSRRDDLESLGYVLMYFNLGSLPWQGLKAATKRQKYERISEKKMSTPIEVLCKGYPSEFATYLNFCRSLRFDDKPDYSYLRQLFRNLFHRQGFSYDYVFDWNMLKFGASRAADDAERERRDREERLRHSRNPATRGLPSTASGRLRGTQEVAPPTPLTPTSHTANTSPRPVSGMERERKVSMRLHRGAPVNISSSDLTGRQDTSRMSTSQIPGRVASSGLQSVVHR

[8] = molecular target: Casein kinase I isoform gamma-3 (Homo sapiens) (UniProt Q9Y6M4); assay: Binding affinity to human CSNK1G3 at 10 uM incubated for 1 hr by kinase binding assay relative to untreated control
Sequence of Casein kinase I isoform gamma-3 (Homo sapiens) (Q9Y6M4 whole entry, looked up, canonical isoform): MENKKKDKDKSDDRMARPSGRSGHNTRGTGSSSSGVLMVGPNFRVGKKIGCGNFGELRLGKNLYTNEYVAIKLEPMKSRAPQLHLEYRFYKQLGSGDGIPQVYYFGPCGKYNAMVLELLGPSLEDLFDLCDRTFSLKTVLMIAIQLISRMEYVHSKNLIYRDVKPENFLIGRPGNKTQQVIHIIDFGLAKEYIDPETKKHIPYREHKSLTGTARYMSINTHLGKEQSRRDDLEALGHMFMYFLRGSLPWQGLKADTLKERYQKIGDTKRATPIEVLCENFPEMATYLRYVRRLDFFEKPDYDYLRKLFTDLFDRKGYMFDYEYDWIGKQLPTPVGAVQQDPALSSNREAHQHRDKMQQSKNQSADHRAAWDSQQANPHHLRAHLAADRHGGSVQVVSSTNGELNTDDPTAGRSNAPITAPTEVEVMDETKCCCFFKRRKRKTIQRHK

HT-29 = assay: Growth inhibition of human HT-29 cells after 48 hrs by sulforhodamine B assay; format: functional; details: HT-29, 48 h
U-251 [9] = assay: Growth inhibition of human U251 cells after 48 hrs by sulforhodamine B assay; format: functional; details: U-251, 48 h
[10] = molecular target: T1, Mitogen-activated protein kinase 12 (Homo sapiens) (UniProt P53778); assay: Binding affinity to human p38-gamma at 10 uM incubated for 1 hr by kinase binding assay relative to untreated control
T1 sequence (whole entry): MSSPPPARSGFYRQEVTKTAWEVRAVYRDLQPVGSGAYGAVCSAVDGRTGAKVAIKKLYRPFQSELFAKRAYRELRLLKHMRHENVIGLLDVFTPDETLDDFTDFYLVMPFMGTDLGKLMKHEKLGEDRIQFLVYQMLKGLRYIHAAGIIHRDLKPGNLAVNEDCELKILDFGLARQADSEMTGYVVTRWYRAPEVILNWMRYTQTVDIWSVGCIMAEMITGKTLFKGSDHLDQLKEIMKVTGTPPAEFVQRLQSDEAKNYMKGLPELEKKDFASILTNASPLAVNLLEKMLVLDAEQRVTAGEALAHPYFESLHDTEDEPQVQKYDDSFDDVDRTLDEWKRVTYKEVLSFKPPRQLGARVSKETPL

SN12C = assay: Growth inhibition of human SN12C cells after 48 hrs by sulforhodamine B assay; format: functional
MDA-MB-231 = assay: Growth inhibition of human MDA-MB-231 cells after 48 hrs by sulforhodamine B assay; format: functional; details: MDA-MB-231, 48 h
T47D = assay: Growth inhibition of human T47D cells after 48 hrs by sulforhodamine B assay; format: functional
HL-60(TB) = assay: Cytotoxicity against human HL-60(TB) cells after 48 hrs by sulforhodamine B assay; format: cell-based
K562 [11] = assay: Cytotoxicity against human K562 cells after 48 hrs by sulforhodamine B assay; format: cell-based; details: k562, 48 h
EKVX = assay: Cytotoxicity against human EKVX cells after 48 hrs by sulforhodamine B assay; format: cell-based
HOP-62 = assay: Cytotoxicity against human HOP62 cells after 48 hrs by sulforhodamine B assay; format: cell-based; details: hop-62, 48 h
HOP-92 = assay: Cytotoxicity against human HOP92 cells after 48 hrs by sulforhodamine B assay; format: cell-based; details: hop-92, 48 h
[12] = molecular target: Casein kinase I isoform delta (Homo sapiens) (UniProt P48730); assay: Inhibition of human CSNK1D using gamma-33P-ATP as substrate assessed as enzyme functional activity at 1 uM by scintillation counting relative to untreated control; parameters: scale not given: the % may be the effect or the level left
[13] = molecular target: Mitogen-activated protein kinase 1 (Homo sapiens) (UniProt P28482); assay: Inhibition of human MAPK1 using gamma-33P-ATP as substrate assessed as enzyme functional activity at 1 uM by scintillation counting relative to untreated control; parameters: scale not given: the % may be the effect or the level left
Sequence of Mitogen-activated protein kinase 1 (Homo sapiens) (P28482 whole entry): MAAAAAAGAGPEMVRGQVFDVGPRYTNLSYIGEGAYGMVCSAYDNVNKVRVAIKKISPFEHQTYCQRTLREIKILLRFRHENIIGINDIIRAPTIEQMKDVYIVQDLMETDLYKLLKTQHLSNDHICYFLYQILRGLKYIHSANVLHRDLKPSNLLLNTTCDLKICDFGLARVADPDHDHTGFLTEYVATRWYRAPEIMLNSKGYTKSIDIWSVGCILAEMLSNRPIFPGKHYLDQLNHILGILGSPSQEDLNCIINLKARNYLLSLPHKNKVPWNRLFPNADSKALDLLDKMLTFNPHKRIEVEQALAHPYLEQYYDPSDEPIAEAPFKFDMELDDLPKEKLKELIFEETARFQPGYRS

NCI-H322M = assay: Cytotoxicity against human NCI-H322M cells after 48 hrs by sulforhodamine B assay; format: cell-based
COLO 205 = assay: Cytotoxicity against human COLO205 cells after 48 hrs by sulforhodamine B assay; format: cell-based; details: colo 205, 48 h
HCT-116 = assay: Cytotoxicity against human HCT116 cells after 48 hrs by sulforhodamine B assay; format: cell-based; details: hct-116, 48 h
SW-620 = assay: Cytotoxicity against human SW620 cells after 48 hrs by sulforhodamine B assay; format: cell-based; details: sw-620, 48 h
SF-268 = assay: Cytotoxicity against human SF268 cells after 48 hrs by sulforhodamine B assay; format: cell-based; details: sf-268, 48 h
SNB-19 = assay: Cytotoxicity against human SNB19 cells after 48 hrs by sulforhodamine B assay; format: cell-based; details: snb-19, 48 h
SNB-75 = assay: Cytotoxicity against human SNB75 cells after 48 hrs by sulforhodamine B assay; format: cell-based; details: snb-75, 48 h
U-251 [14] = assay: Cytotoxicity against human U251 cells after 48 hrs by sulforhodamine B assay; format: cell-based; details: u-251, 48 h

## O=C(c1cccc(Nc2ncnc3ccccc23)c1)N1CCN(c2ncc(Cc3ccccc3)cn2)CC1
M14
  LC50: 4.68 µM
SK-MEL-2
  LC50: 5.89 µM
SK-MEL-28
  LC50: 5.25 µM
SK-MEL-5
  LC50: 3.47 µM
OVCAR-3
  LC50: > 100 µM
OVCAR-5
  LC50: > 100 µM
786-0
  LC50: > 100 µM
ACHN
  LC50: > 100 µM
TK-10
  LC50: 39.81 µM
K562 [1]
  TGI: 2.23 µM
A549
  TGI: 3.09 µM
NCI-H460
  TGI: 4.27 µM
DU-145
  LC50: > 100 µM
[2]
  Activity: 20%
[3]
  Activity: > 50%
[4]
  Activity: > 50%
[5]
  Activity: > 50%
[6]
  Activity: > 50%
[7]
  Activity: 22%
[8]
  Activity: > 50%
HT-29
  TGI: 9.33 µM
U-251 [9]
  TGI: 6.61 µM
[10]
  Activity: 25%
SN12C
  TGI: 7.08 µM
MDA-MB-231
  TGI: 2.95 µM
T47D
  TGI: 7.59 µM
HL-60(TB)
  LC50: 6.76 µM
K562 [11]
  LC50: > 100 µM
EKVX
  LC50: > 100 µM
HOP-62
  LC50: 7.41 µM
HOP-92
  LC50: > 100 µM
[12]
  Activity: 74%
[13]
  Activity: 73%
NCI-H322M
  LC50: > 100 µM
COLO 205
  LC50: 5.5 µM
HCT-116
  LC50: > 100 µM
SW-620
  LC50: > 100 µM
SF-268
  LC50: 5.01 µM
SNB-19
  LC50: > 100 µM
SNB-75
  LC50: > 100 µM
U-251 [14]
  LC50: > 100 µM

## c1ccc(Cc2cnc(N3CCN(c4ncnc5ccccc45)CC3)nc2)cc1
M14
  LC50: 51.6 µM
SK-MEL-2
  LC50: 70.3 µM
SK-MEL-28
  LC50: > 100 µM
SK-MEL-5
  LC50: 37.7 µM
OVCAR-3
  LC50: 48.2 µM
OVCAR-5
  LC50: > 100 µM
786-0
  LC50: > 100 µM
ACHN
  LC50: > 100 µM
TK-10
  LC50: > 100 µM
K562 [1]
  TGI: > 100 µM
A549
  TGI: 35.7 µM
NCI-H460
  TGI: 23.7 µM
DU-145
  LC50: 79.8 µM
[2]
  Activity: 30%
[3]
  Activity: > 50%
[4]
  Activity: > 50%
[5]
  Activity: 3.4%
[6]
  Activity: 31%
[7]
  Activity: 26%
[8]
  Activity: > 50%
HT-29
  TGI: 35.1 µM
U-251 [9]
  TGI: 24.6 µM
[10]
  Activity: > 50%
SN12C
  TGI: 24.4 µM
MDA-MB-231
  TGI: 38.1 µM
T47D
  TGI: 45.5 µM
HL-60(TB)
  LC50: > 100 µM
K562 [11]
  LC50: > 100 µM
EKVX
  LC50: > 100 µM
HOP-62
  LC50: > 100 µM
HOP-92
  LC50: 62 µM
[12]
  Activity: 90%
[13]
  Activity: 100%
NCI-H322M
  LC50: > 100 µM
COLO 205
  LC50: > 100 µM
HCT-116
  LC50: 36.4 µM
SW-620
  LC50: 59.9 µM
SF-268
  LC50: > 100 µM
SNB-19
  LC50: > 100 µM
SNB-75
  LC50: > 100 µM
U-251 [14]
  LC50: 54.1 µM

## CCc1cnc(N2CCN(C(=O)c3ccc(CNc4ncnc5ccccc45)cc3)CC2)nc1
M14
  LC50: 93.7 µM
SK-MEL-2
  LC50: > 100 µM
SK-MEL-28
  LC50: > 100 µM
SK-MEL-5
  LC50: 20.8 µM
OVCAR-3
  LC50: > 100 µM
OVCAR-5
  LC50: > 100 µM
786-0
  LC50: > 100 µM
ACHN
  LC50: > 100 µM
TK-10
  LC50: > 100 µM
K562 [1]
  TGI: > 100 µM
A549
  TGI: > 100 µM
NCI-H460
  TGI: 30.7 µM
DU-145
  LC50: > 100 µM
[2]
  Activity: > 50%
[3]
  Activity: 6.8%
[4]
  Activity: 13%
[5]
  Activity: > 50%
[6]
  Activity: > 50%
[7]
  Activity: 23%
[8]
  Activity: 24%
HT-29
  TGI: 83.2 µM
U-251 [9]
  TGI: > 100 µM
[10]
  Activity: > 50%
SN12C
  TGI: 59 µM
MDA-MB-231
  TGI: 84.9 µM
T47D
  TGI: > 100 µM
HL-60(TB)
  LC50: > 100 µM
K562 [11]
  LC50: > 100 µM
EKVX
  LC50: > 100 µM
HOP-62
  LC50: > 100 µM
HOP-92
  LC50: > 100 µM
[12]
  Activity: 87%
[13]
  Activity: 100%
NCI-H322M
  LC50: > 100 µM
COLO 205
  LC50: > 100 µM
HCT-116
  LC50: > 100 µM
SW-620
  LC50: > 100 µM
SF-268
  LC50: > 100 µM
SNB-19
  LC50: > 100 µM
SNB-75
  LC50: > 100 µM
U-251 [14]
  LC50: > 100 µM

— ChEMBL document CHEMBL1782045, “Discovery, synthesis, and investigation of the antitumor activity of novel piperazinylpyrimidine derivatives” (Eur J Med Chem, 2011)
